Test results as given in the NIST ThermoML archive (doi:10.1016/j.fluid.2018.12.005).
Values joined by “and” are separate entries in the source; they are usually repeats but may differ in a detail not shown here. Equal entries are not always repeated. Numbers after ± are expanded uncertainties.

Tests used:
[1] = refractive index (Na D-line) (dimensionless); details: 298.15 K; 101.33 kPa; Liquid; Standard Abbe refractometry
[2] = Liquid; for mass density: 298.15 K, 101.33 kPa, Vibrating tube method; for vapor or sublimation pressure: Closed cell (Static) method

| SMILES | refractive index [1] | mass density [2] | vapor or sublimation pressure ([2]; 283.15 K) [kPa] | vapor or sublimation pressure ([2]; 293.15 K) [kPa] | vapor or sublimation pressure ([2]; 303.15 K) [kPa] | vapor or sublimation pressure ([2]; 313.15 K) [kPa] | vapor or sublimation pressure ([2]; 323.16 K) [kPa] | vapor or sublimation pressure ([2]; 283.14 K) [kPa] | vapor or sublimation pressure ([2]; 283.16 K) [kPa] | vapor or sublimation pressure ([2]; 293.14 K) [kPa] | vapor or sublimation pressure ([2]; 303.12 K) [kPa] | vapor or sublimation pressure ([2]; 313.13 K) [kPa] | vapor or sublimation pressure ([2]; 313.2 K) [kPa] | vapor or sublimation pressure ([2]; 323.13 K) [kPa] | vapor or sublimation pressure ([2]; 323.17 K) [kPa] |
| --- | --- | --- | --- | --- | --- | --- | --- | --- | --- | --- | --- | --- | --- | --- | --- |
| CCCCCC [hexane] | 1.375 ± 0.002 | 655 ± 2 kg/m3 | – | – | – | – | – | – | – | – | – | – | – | – | – |
| FC(F)(F)C(F)(F)C(F)(F)C(F)(F)C(F)(F)C(F)(F)C(F)(F)C(F)(F)F [octadecafluorooctane] | 1.268 ± 0.002 | 1755 ± 2 kg/m3 | 1.51 ± 0.2 | 2.72 ± 0.2 | 4.72 ± 0.2 | 7.86 ± 0.21 | 12.6 ± 0.21 | – | – | – | – | – | – | – | – |
| FC(F)(F)C(F)(F)C(F)(F)C(F)(F)C(F)(F)C(F)(F)F [perfluorohexane] | 1.251 ± 0.002 and 1.253 ± 0.002 | 1701 ± 7 kg/m3 and 1670 ± 2 kg/m3 | – | 23.4 ± 0.3 | 36.3 ± 0.3 | – | – | 14.6 ± 0.2 | 14.4 ± 0.2 | 23.5 ± 0.3 | 36.2 ± 0.3 | 54.1 ± 0.4 | 54.4 ± 0.4 | 78.8 ± 0.5 | 78.9 ± 0.4 |
